According to patent publication US8192962B2, “Processes for detecting toxic substances” (Daikin Industries, Ltd., priority 2001, dated 2012):

Test system: Transport facilitation protein genes
Test: DNA chip mRNA expression in yeast, transport facilitation protein genes (Table 5)
Format: cell-based, Saccharomyces cerevisiae S288C
Procedure, shortened: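 First, S288C yeast grown in YPD at 25° C. are dosed in log phase with one toxicant (growth-inhibiting, not lethal) for 2 h. Next, total RNA is extracted and poly(A) mRNA isolated and reverse-transcribed with Cy3/Cy5-dUTP. Finally, whole-genome chip fluorescence is read relative to unexposed cells.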

## Oc1cc(Cl)c(Cl)cc1Cl [(6), 2,4,5-trichlorophenol]
Yeast gene YBL030C
  The level of expressed mRNA in the presence of chemical substance/The level of expressed mRNA in the absence of chemical substance: 1.1
Yeast gene YBL099W
  The level of expressed mRNA in the presence of chemical substance/The level of expressed mRNA in the absence of chemical substance: 0.9
Yeast gene YBR052C
  The level of expressed mRNA in the presence of chemical substance/The level of expressed mRNA in the absence of chemical substance: 2.1
Yeast gene YBR068C
  The level of expressed mRNA in the presence of chemical substance/The level of expressed mRNA in the absence of chemical substance: 1.9
Yeast gene YBR127C
  The level of expressed mRNA in the presence of chemical substance/The level of expressed mRNA in the absence of chemical substance: 1.1
Yeast gene YBR132C
  The level of expressed mRNA in the presence of chemical substance/The level of expressed mRNA in the absence of chemical substance: 1.2
Yeast gene YBR207W
  The level of expressed mRNA in the presence of chemical substance/The level of expressed mRNA in the absence of chemical substance: 1.6
Yeast gene YBR293W
  The level of expressed mRNA in the presence of chemical substance/The level of expressed mRNA in the absence of chemical substance: 0.9
Yeast gene YBR294W
  The level of expressed mRNA in the presence of chemical substance/The level of expressed mRNA in the absence of chemical substance: 1.2
Yeast gene YBR298C
  The level of expressed mRNA in the presence of chemical substance/The level of expressed mRNA in the absence of chemical substance: 0.4
Yeast gene YCL025C
  The level of expressed mRNA in the presence of chemical substance/The level of expressed mRNA in the absence of chemical substance: 0.9
Yeast gene YCL038C
  The level of expressed mRNA in the presence of chemical substance/The level of expressed mRNA in the absence of chemical substance: 3.2
Yeast gene YCR024C-A
  The level of expressed mRNA in the presence of chemical substance/The level of expressed mRNA in the absence of chemical substance: 1.2
Yeast gene YCR037C
  The level of expressed mRNA in the presence of chemical substance/The level of expressed mRNA in the absence of chemical substance: 1.8
Yeast gene YCR098C
  The level of expressed mRNA in the presence of chemical substance/The level of expressed mRNA in the absence of chemical substance: 1.6
Yeast gene YDL128W
  The level of expressed mRNA in the presence of chemical substance/The level of expressed mRNA in the absence of chemical substance: 2.3
Yeast gene YDL198C
  The level of expressed mRNA in the presence of chemical substance/The level of expressed mRNA in the absence of chemical substance: 0.8
Yeast gene YDL210W
  The level of expressed mRNA in the presence of chemical substance/The level of expressed mRNA in the absence of chemical substance: 1.3
Yeast gene YDL245C
  The level of expressed mRNA in the presence of chemical substance/The level of expressed mRNA in the absence of chemical substance: 1.1
Yeast gene YDR038C
  The level of expressed mRNA in the presence of chemical substance/The level of expressed mRNA in the absence of chemical substance: 1.8
Yeast gene YDR039C
  The level of expressed mRNA in the presence of chemical substance/The level of expressed mRNA in the absence of chemical substance: 1.1
Yeast gene YDR086C
  The level of expressed mRNA in the presence of chemical substance/The level of expressed mRNA in the absence of chemical substance: 0.8
Yeast gene YDR270W
  The level of expressed mRNA in the presence of chemical substance/The level of expressed mRNA in the absence of chemical substance: 2.2
Yeast gene YDR298C
  The level of expressed mRNA in the presence of chemical substance/The level of expressed mRNA in the absence of chemical substance: 1.2
Yeast gene YDR342C
  The level of expressed mRNA in the presence of chemical substance/The level of expressed mRNA in the absence of chemical substance: 1.1
Yeast gene YDR343C
  The level of expressed mRNA in the presence of chemical substance/The level of expressed mRNA in the absence of chemical substance: 1.3
Yeast gene YDR345C
  The level of expressed mRNA in the presence of chemical substance/The level of expressed mRNA in the absence of chemical substance: 1.2
Yeast gene YDR387C
  The level of expressed mRNA in the presence of chemical substance/The level of expressed mRNA in the absence of chemical substance: 1.2
Yeast gene YDR497C
  The level of expressed mRNA in the presence of chemical substance/The level of expressed mRNA in the absence of chemical substance: 0.6
Yeast gene YEL027W
  The level of expressed mRNA in the presence of chemical substance/The level of expressed mRNA in the absence of chemical substance: 1.1
Yeast gene YEL063C
  The level of expressed mRNA in the presence of chemical substance/The level of expressed mRNA in the absence of chemical substance: 1.3
Yeast gene YEL065W
  The level of expressed mRNA in the presence of chemical substance/The level of expressed mRNA in the absence of chemical substance: 2.3
Yeast gene YER053C
  The level of expressed mRNA in the presence of chemical substance/The level of expressed mRNA in the absence of chemical substance: 2.8
Yeast gene YER119C
  The level of expressed mRNA in the presence of chemical substance/The level of expressed mRNA in the absence of chemical substance: 1.3
Yeast gene YFL011W
  The level of expressed mRNA in the presence of chemical substance/The level of expressed mRNA in the absence of chemical substance: 1.0
Yeast gene YFL041W
  The level of expressed mRNA in the presence of chemical substance/The level of expressed mRNA in the absence of chemical substance: 2.0
Yeast gene YFL050C
  The level of expressed mRNA in the presence of chemical substance/The level of expressed mRNA in the absence of chemical substance: 0.9
Yeast gene YFL054C
  The level of expressed mRNA in the presence of chemical substance/The level of expressed mRNA in the absence of chemical substance: 2.4
Yeast gene YFL055W
  The level of expressed mRNA in the presence of chemical substance/The level of expressed mRNA in the absence of chemical substance: 1.1
Yeast gene YGL006W
  The level of expressed mRNA in the presence of chemical substance/The level of expressed mRNA in the absence of chemical substance: 1.0
Yeast gene YGL008C
  The level of expressed mRNA in the presence of chemical substance/The level of expressed mRNA in the absence of chemical substance: 1.9
Yeast gene YGL104C
  The level of expressed mRNA in the presence of chemical substance/The level of expressed mRNA in the absence of chemical substance: 2.1
Yeast gene YGL167C
  The level of expressed mRNA in the presence of chemical substance/The level of expressed mRNA in the absence of chemical substance: 2.0
Yeast gene YGL255W
  The level of expressed mRNA in the presence of chemical substance/The level of expressed mRNA in the absence of chemical substance: 1.1
Yeast gene YGR055W
  The level of expressed mRNA in the presence of chemical substance/The level of expressed mRNA in the absence of chemical substance: 1.1
Yeast gene YGR065C
  The level of expressed mRNA in the presence of chemical substance/The level of expressed mRNA in the absence of chemical substance: 2.4
Yeast gene YGR082W
  The level of expressed mRNA in the presence of chemical substance/The level of expressed mRNA in the absence of chemical substance: 1.1
Yeast gene YGR096W
  The level of expressed mRNA in the presence of chemical substance/The level of expressed mRNA in the absence of chemical substance: 1.7
Yeast gene YGR138C
  The level of expressed mRNA in the presence of chemical substance/The level of expressed mRNA in the absence of chemical substance: 0.8
Yeast gene YGR191W
  The level of expressed mRNA in the presence of chemical substance/The level of expressed mRNA in the absence of chemical substance: 1.1
Yeast gene YGR197C
  The level of expressed mRNA in the presence of chemical substance/The level of expressed mRNA in the absence of chemical substance: 0.5
Yeast gene YGR224W
  The level of expressed mRNA in the presence of chemical substance/The level of expressed mRNA in the absence of chemical substance: 0.8
Yeast gene YGR260W
  The level of expressed mRNA in the presence of chemical substance/The level of expressed mRNA in the absence of chemical substance: 0.9
